Values of other authors, collected in US7977373B2, “Prodrugs of ion channel modulating compounds and uses thereof” (Cardiome Pharma Corp., priority 2004, dated 2011).

For CCCCCCCN(CC)CCCC(O)c1ccc(NS(C)(=O)=O)cc1 (centres unmarked) [ibutilide], the “patients requiring cardioversion for refractory ventricular arrhythmias” value is given as ~1.7% and the “risk of ventricular proarrhythmia” value (estimated, patients) is given as ~4.4%.
